Patent US20080045588A1, “Preparation and utility of substituted amphetamines” (Auspex Pharmaceuticals, Inc., priority 2006, published 2008)
Where two headings read alike, the source gives them in different places.

Biological target: CYP2D6 (Homo sapiens, UniProt P10635)
Test: In vitro inhibition of human cytochrome P450 enzymes (fluorometric, 3-cyano-7-ethoxycoumarin substrate)
Method: In vitro Inhibition of Human Cytochrome P450 Enzymes
Solution A: NADPH-Regenerating System
To a glass tube on ice were added sequentially: 2% aqueous solution of sodium bicarbonate (10 mL) in NADP^+ (17 mg), glucose-6-phosphate (78 mg) and glucose-6-phosphate dehydrogenase (60 units).
To a glass tube on ice were added sequentially: 0.5 M KH2PO4 (pH 7.4, 2.4 mL), water (9 mL), CYP2D6 (480 μL of 1 picomol/microliter), and 3-cyano-7-ethoxycoumarin (5 mM in 2% acetonitrile-water, 120 microliter).
Solution A was transferred to a 96-well black plate (80 microliter per well), followed by various concentrations of a solution of N-methyl-1-[3,4-methylenedioxyphenyl]-2-aminopropane in 20% acetonitrile-water (20 microliter per well). The reaction was initiated by adding 100 microliter of solution B to each well of the 96-well plate. The plate was incubated for 30 minutes at 37° C. in the dark. The reaction was stopped by adding 75 microliter of stop buffer (4:1 acetonitrile-0.5 M Tris base) to each well, and the end point was measured in a fluorometer plate reader at λex=409 nm and λem=460 nm.

CYP2D6, sequence (P10635 whole entry): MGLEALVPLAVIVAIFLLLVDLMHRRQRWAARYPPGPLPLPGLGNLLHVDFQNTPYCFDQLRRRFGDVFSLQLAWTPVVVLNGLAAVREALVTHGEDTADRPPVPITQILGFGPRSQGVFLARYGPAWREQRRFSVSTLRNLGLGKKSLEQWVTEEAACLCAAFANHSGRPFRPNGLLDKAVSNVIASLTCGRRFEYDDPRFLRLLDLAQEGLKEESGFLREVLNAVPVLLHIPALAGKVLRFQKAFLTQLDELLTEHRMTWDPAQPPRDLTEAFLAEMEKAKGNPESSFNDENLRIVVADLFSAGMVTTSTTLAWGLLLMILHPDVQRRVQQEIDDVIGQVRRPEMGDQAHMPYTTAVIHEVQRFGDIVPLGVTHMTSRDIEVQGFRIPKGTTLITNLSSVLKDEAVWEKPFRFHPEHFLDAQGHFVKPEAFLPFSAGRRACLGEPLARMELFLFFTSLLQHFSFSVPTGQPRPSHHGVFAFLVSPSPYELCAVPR

CNC(C)Cc1ccc2c(c1)OCO2 (centres unmarked) [N-methyl-1-[3,4-methylenedioxyphenyl]-2-aminopropane, reference compound]
IC50: 3 µM

[2H]C1([2H])Oc2ccc(CC(C)NC)cc2O1 (single isomer, unassigned) [example 5, d2-N-methyl-1-(3,4-methylenedioxyphenyl)-2-aminopropane]
IC50: 8 µM

[2H]C(c1ccc2c(c1)OC([2H])([2H])O2)C([2H])(C)NC([2H])([2H])[2H] (single isomer, unassigned) [example 9, d7-N-methyl-1-(3,4-methylenedioxyphenyl)-2-aminopropane]
IC50: 30 µM

[2H]C([2H])([2H])NC(C)Cc1ccc2c(c1)OC([2H])([2H])O2 (single isomer, unassigned) [example 6, d5-N-methyl-1-(3,4-methylenedioxyphenyl)-2-aminopropane]
IC50: 8 µM

N[C@@H]1C[C@H]1c1ccccc1 (racemic) [Tranylcypromine, reference compound]
IC50 (read-out: IC50 (inhibition concentration of CYP2D6), CYP2D6, 3-cyano-7-ethoxycoumarin substrate, 30 minutes at 37° C., fluorescence λex=409 nm, λem=460 nm): 2.4 µM
